Data published in patent US20030068386A1, “Method of treating cancerous disease” (priority 2001, published 2003).

What was measured:
[1] = system: normal human fibroblasts; assay: AS-induced toxicity to normal human fibroblasts, crystal violet cell number; type: cell-based; conditions: for effect on AS cytotoxicity to human fibroblasts: ascorbic acid 5 mM, POBN 10 mM, DMSO 0.2 M in incubation medium
Method: Human fetal fibroblasts were cultured as described herein. Briefly, human fetal hearts of gestational age 16-24 weeks are aseptically obtained after elective termination of normal pregnancy by dilatation and evacuation. The aorta is then cannulated for continuous perfusion of the coronary arteries with calcium-free Tyrode's solution (117 mM NaCl, 5.7 mM KCl, 11 mM glucose, 4.4 mM NaHCO3, 1.5 mM KH2PO4, 1.7 mM MgCl2, HEPES 20 mM, pH 7.4) containing 1 U/ml of Na-heparin at 37° C., bubbled with 100% O2 as described for the Langendorff preparation. After 15 min of washing to clear the blood from the heart, fresh calcium-free Tyrode's solution containing 1.5 mg/ml collagenase A (type III) is recirculated for approximately 20 minutes. The heart dissociates spontaneously, allowing cells to slowly drip and fall on a Petri dish containing 0.25% trypsin, 1 mM EDTA in HBSS. Clumps of cells are dissociated and the resulting suspension poured over a cell strainer. Cells are centrifuged and the pellet resuspended in 20 ml of culture medium [DME supplemented with 10% fetal bovine serum, 50 U/ml PCN, 50 U/ml streptomycin, […] gentamicin, 1 mM non-essential amino acid (Gibco Laboratories), 0.1 mM essential medium vitamins (Gibco Laboratories), 2 mM glutamine, 0.1 mM Na pyruvate]. To obtain primary cardiac fibroblasts, the isolate will be plated in flasks (20 min at 37° C.). The fibroblasts will be passaged at 12×10^6 cells per 75 cm2 culture flask and grown in 5% CO2 at 37° C. After 3 passages in culture, the fibroblast stain using the fibroblast-specific antibody (monoclonal anti-human fibroblast surface protein, Clone 1B10).
The concentration of the hydroxylamine was determined by co-injection of 4-methylpicoline as described in Analytical Chemistry, Stoyanovsky, et al., supra. […] Normal human fibroblasts (800 cells per plate) were treated for 30 minutes at 37° C. with AS in 50 mM phosphate buffer (pH 6.3, open circles; pH 7.4, filled circles) containing 0.15 M NaCl and 0.2 mM CaC12. Thereafter, the fluid was removed, the cells were covered with minimal essential medium containing 10% fetal bovine serum (Sigma Chem. Co.,St. Louis, Mo.) and incubated at 37° C.; after 4 hours, the cell number was determined by the crystal violet method as known by those skilled in the art. Results are from four independent experiments. Each experimental point represents the mean of triplicate±SEM % (Mean value±standard error; n=3) of controls. […] The cells were treated as indicated in FIG. 5B except that in the incubation medium was included (1) ascorbic acid (5 mM) plus SOD (superoxide dismuthase)(300 U per ml) plus catalase (500 U per ml) filled circles, all purchased from Sigma Chem. Co.; (2) POBN (10 mM) open circles; or 3. DMSO ([…]) filled triangles.

[2] = system: breast cancer cells (BRCA1, OMIM Number 113705); assay: AS-induced toxicity to breast cancer cells, crystal violet cell number; type: cell-based, human
[3] = cited from earlier work

[Na+].[Na+].[O-][N+]([O-])=NO [AS, sodium trioxodinitrate]
toxicity to normal human fibroblasts ([1]; acidic conditions): toxic | toxicity to normal human fibroblasts ([1]; non-acidic conditions): not toxic | cell toxicity ([1]; pH 7.4): not observed | death of treated cells ([2]; pH 6.2, 30 minutes at 37° C. with AS, cell number after 4 hours): approximately 70% | cell toxicity ([2]; pH 7.4): not observed | stability ([3]; alkaline solutions): relatively stable | pK1 ([3]; aqueous solution): 3.0 | pK2 ([3]; aqueous solution): 9.35 | rate of decomposition ([3]; pH interval of 3.5 to 8.5): rapid, proton-independent

C[S+](C)[O-] [DMSO, dimethyl sulfoxide, reference compound]
effect on AS cytotoxicity to human fibroblasts [1]: protective effect

CC(C)(C)[N+]([O-])=Cc1cc[n+]([O-])cc1 [POBN, alpha-(4-Pyridyl-1-oxide)-N-tert-butylnitrone, reference compound]
effect on AS cytotoxicity to human fibroblasts [1]: protective effect

O=C1O[C@H]([C@@H](O)CO)C(O)=C1O [ascorbic acid, reference compound]
effect on AS cytotoxicity to human fibroblasts [1]: protective effect
